Laboratory results reported in US10280184B2, “Heterocyclic kinase inhibitors” (AbbVie Inc., priority 2014, dated 2019).

target: CSF-1R (Homo sapiens (Human), UniProt P07333); assay: In vitro CSF-1R kinase activity measured by trFRET; type: biochemical; settings: recombinant human catalytic domain (aa 538-910), 0.1 mM ATP; read-out: CSF-1R enzyme IC50
Method: In Vitro CSF-1R Kinase Activity Measured by Time-Resolved Fluorescence Resonance Energy Transfer (trFRET)
(§1) The CSF-1R construct corresponds to recombinant human catalytic domain (aa 538-910), which was purchased from Invitrogen (cat #PV4092). CSF-1R was mixed with peptide substrate (biotin-TYR1, Sequence: Biotin-(Ahx)-GAEEEIYAAFFA-COOH, 4 μM final) at varying inhibitor concentrations in reaction buffer: 50 mM MOPSO pH 6.5, 10 mM MgCl2, 2 mM MnCl2, 2.5 mM DTI, 0.01% BSA, 0.1 mM Na3VO4 and 0.1 mM ATP. After about 60 min incubation at rt, the reaction was quenched by addition of EDTA (final concentration: 100 mM) and developed by addition of detection reagents (final approximate concentrations: 30 mM HEPES pH 7.0, 0.06% BSA, 0.006% Tween-20, 0.24 M KF, 80 ng/mL PT66K (europium labeled anti-phosphotyrosine antibody cat #61T66KLB Cisbio, Bedford, Mass.) and 0.6 μg/mL SAXL (Phycolink streptavidin-allophycocyanin acceptor, cat #PJ25S, Prozyme, San Leandro, Calif.). The developed reaction was incubated in the dark for about 60 min at rt, then read via a time-resolved fluorescence detector (Rubystar, BMG) using a 337 nm laser for excitation and monitoring emission wavelength at 665 nm. Within the linear range of the assay, the observed signal at 665 nm was directly related to phosphorylated product and can be used to calculate the IC50 values.

CSF-1R, sequence (P07333 538-910): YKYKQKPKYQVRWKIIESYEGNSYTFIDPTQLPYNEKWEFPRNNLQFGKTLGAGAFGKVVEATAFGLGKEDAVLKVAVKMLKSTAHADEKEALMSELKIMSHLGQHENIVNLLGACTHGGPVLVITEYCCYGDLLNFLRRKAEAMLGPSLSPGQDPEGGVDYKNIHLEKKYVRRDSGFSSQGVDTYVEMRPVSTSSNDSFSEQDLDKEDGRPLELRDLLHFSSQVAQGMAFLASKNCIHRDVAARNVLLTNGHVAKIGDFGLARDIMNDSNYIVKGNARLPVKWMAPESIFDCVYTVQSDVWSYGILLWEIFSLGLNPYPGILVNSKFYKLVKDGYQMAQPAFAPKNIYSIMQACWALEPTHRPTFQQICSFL

Row | Compound | IC50 [nM]
1 | c1nc2c(Nc3cnn(C4CCOCC4)c3)nc(C3CCCCC3)cn2n1 [A.1.2, 6-cyclohexyl-N-(1-(tetrahydro-2H-pyran-4-yl)-1H-pyrazol-4-yl)-[1,2,4]triazolo[1,5-a]pyrazin-8-amine] | < 100
2 | c1nc2c(Nc3cn[nH]c3)nc(C3CCCCC3)cn2n1 [A.1.7, 6-cyclohexyl-N-(1H-pyrazol-4-yl)-[1,2,4]triazolo[1,5-a]pyrazin-8-amine] | < 100
3 | CCOC(=O)[C@H]1CC[C@@H](n2cc(Nc3nc(C4CCCCC4)cn4ncnc34)cn2)CC1 [A.1.8, cis-ethyl 4-(4-((6-cyclohexyl-[1,2,4]triazolo[1,5-a]pyrazin-8-yl)amino)-1H-pyrazol-1-yl)cyclohexanecarboxylate] | < 100
4 | c1nc2c(Nc3cnn(C4CCNCC4)c3)nc(C3CCCCC3)cn2n1 [D.1.1, 6-cyclohexyl-N-(1-(piperidin-4-yl)-1H-pyrazol-4-yl)-[1,2,4]triazolo[1,5-a]pyrazin-8-amine] | < 100
5 | c1nc2c(Nc3cnn(C4CCNCC4)c3)nc(C3CCCC3)cn2n1 [D.1.2, 6-cyclopentyl-N-(1-(piperidin-4-yl)-1H-pyrazol-4-yl)-[1,2,4]triazolo[1,5-a]pyrazin-8-amine] | < 100
6 | CC(C)n1cc(Nc2nc(C3CCCCC3)cn3ncnc23)cn1 [E.1.1, 6-cyclohexyl-N-(1-isopropyl-1H-pyrazol-4-yl)-[1,2,4]triazolo[1,5-a]pyrazin-8-amine] | < 100
7 | Cn1cc(Nc2nc(C3CCC(C)(C)CC3)cn3ncnc23)cn1 [E.1.2, 6-(4,4-dimethylcyclohexyl)-N-(1-methyl-1H-pyrazol-4-yl)-[1,2,4]triazolo[1,5-a]pyrazin-8-amine] | < 100
8 | Cn1cc(Nc2nc([C@H]3CC[C@H](C)CC3)cn3ncnc23)cn1 [E.1.3] | < 100

More lines, now with the values ahead:

Row | IC50 [nM] | Compound
9 | < 100 | Cn1cc(Nc2nc([C@@H]3CCC[C@@H](O)C3)cn3ncnc23)cn1 (single isomer, unassigned) [Example 10]
10 | < 100 | CC(C)(O)CCn1cc(Nc2nc(C3CCCCC3)cn3ncnc23)cn1 [A.1.1, 4-(4-((6-cyclohexyl-[1,2,4]triazolo[1,5-a]pyrazin-8-yl)amino)-1H-pyrazol-1-yl)-2-methylbutan-2-ol]
11 | < 100 | c1nc2c(Nc3cnn(C4COC4)c3)nc(C3CCCCC3)cn2n1 [A.1.4, 6-cyclohexyl-N-(1-(oxetan-3-yl)-1H-pyrazol-4-yl)-[1,2,4]triazolo[1,5-a]pyrazin-8-amine]

target: BTK (Homo sapiens (Human), UniProt Q06187); assay: In vitro BTK kinase activity measured by trFRET; type: biochemical; settings: recombinant human catalytic domain (aa 393-659), 0.01 mM ATP; read-out: Btk enzyme IC50
Sequence (Q06187 393-659): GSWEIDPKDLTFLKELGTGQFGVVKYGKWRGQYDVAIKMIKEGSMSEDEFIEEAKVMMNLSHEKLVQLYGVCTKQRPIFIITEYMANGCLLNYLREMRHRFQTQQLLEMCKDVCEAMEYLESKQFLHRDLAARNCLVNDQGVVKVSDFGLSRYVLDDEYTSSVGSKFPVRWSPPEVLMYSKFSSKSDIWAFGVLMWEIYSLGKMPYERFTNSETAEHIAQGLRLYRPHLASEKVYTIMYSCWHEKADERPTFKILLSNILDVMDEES
Method: In Vitro BTK Kinase Activity Measured by Time-Resolved Fluorescence Resonance Energy Transfer (trFRET)
as §1, with “The in-house BTK” for “The CSF-1R construct”, “(aa 393-659),” for “(aa 538-910),”, “was expressed in SF9 cells with an N-terminal his tag and purified by immobilized metal affinity chromatography. BTK” for “was purchased from Invitrogen (cat #PV4092). CSF-1R”, “Biotin-(Ahx)-GAEEEIYAAFFA-COOH, 0.4” for “Biotin-(Ahx)-GAEEEIYAAFFA-COOH, 4”, “mM DTT,” for “mM DTI,”, “and 0.01” for “and 0.1”

Row | Compound | IC50 [nM]
12 | C=CC(=O)N1CCC(c2cc(Nc3cc4n(n3)CCOC4)c3nccn3n2)C1 (stereo not shown) [F.1.41, 1-(3-(8-((6,7-dihydro-4H-pyrazolo[5,1-c][1,4]oxazin-2-yl)amino)imidazo[1,2-b]pyridazin-6-yl)pyrrolidin-1-yl)prop-2-en-1-one] | < 100
13 | C=CC(=O)N1CC(c2cc(Nc3cc4n(n3)CCOC4)c3ncnn3c2)C1 [F.1.42] | < 100
14 | C=CC(=O)N1CC[C@@H](c2cn3ncnc3c(Nc3ccc(OC)c(OC)c3)n2)C1 [F.1.112] | 1000 to 50000
15 | Cn1ccc(Nc2cc(C3CCCN(C#N)C3)cn3ncnc23)n1 (stereo not shown) [I.1.1, 3-(8-((1-methyl-1H-pyrazol-3-yl)amino)-[1,2,4]triazolo[1,5-a]pyridin-6-yl)piperidine-1-carbonitrile] | 100 to 1000

Next, values leading:

Row | IC50 [nM] | Compound
16 | 100 to 1000 | Cn1ccc(Nc2cc(C3CCN(C#N)C3)cn3ncnc23)n1 (stereo not shown) [I.1, 3-(8-((1-methyl-1H-pyrazol-3-yl)amino)-[1,2,4]triazolo[1,5-a]pyridin-6-yl)pyrrolidine-1-carbonitrile]
17 | 100 to 1000 | Cn1cc(Nc2nc(C3CCN(C#N)C3)cn3ncnc23)cn1 (stereo not shown) [I.1.2]
18 | 100 to 1000 | N#CN1CCCC(c2cc(Nc3cc4n(n3)CCOC4)c3ncnn3c2)C1 (stereo not shown) [I.1.3, 3-(8-((6,7-dihydro-4H-pyrazolo[5,1-c][1,4]oxazin-2-yl)amino)-[1,2,4]triazolo[1,5-a]pyridin-6-yl)piperidine-1-carbonitrile]
19 | 100 to 1000 | Cn1ccc(Nc2cc([C@H]3CCC[C@H](NC#N)C3)cn3ncnc23)n1 [I.1.4, N—((1S,3S)-3-(8-((1-methyl-1H-pyrazol-3-yl)amino)-[1,2,4]triazolo[1,5-a]pyridin-6-yl)cyclohexyl)cyanamide]
